Here are results for 42 molecules from patent publication US20170326125A1, “MULTISUBSTITUTED AROMATIC COMPOUNDS AS INHIBITORS OF THROMBIN” (VERSEON CORPORATION, priority 2016, published 2017).

Structures are written as SMILES.

The target in the assay is T1, Human thrombin (Homo sapiens, UniProt P00734).
T1 construct: purchased Haematologic Technologies Inc
Nature of the assay: Inhibition of the protease activity of thrombin (chromogenic substrate S-2238). The class given is biochemical. As to conditions: inhibition of the protease activity of thrombin.
A word on the IC50: it is the midpoint of a concentration-inhibition curve. Higher therefore signals weaker potency in that assay. The molecule `Cc1ccccc1C(=O)n1nc(-c2ccccn2)cc1NCc1ccccc1` [Cmpd 260, N-benzyl-1-[(2-methylphenyl)carbonyl]-3-(pyridin-2-yl)-1H-pyrazol-5-amine] registered an IC50 of more than 1000 nM.

The molecule `COc1cccc(C(=O)n2nc(-c3ccccn3)nc2NCc2ccccc2)c1` [Cmpd 261, N-benzyl-1-[(3-methoxyphenyl)carbonyl]-3-(pyridin-2-yl)-1H-1,2,4-triazol-5-amine] returned a 50% inhibitory concentration (IC50) of less than 100 nM.

`O=C(c1ccc(Cl)cc1)n1nc(-c2ccccn2)nc1NCc1ccccc1` [Cmpd 262, N-benzyl-1-[(4-chlorophenyl)carbonyl]-3-(pyridin-2-yl)-1H-1,2,4-triazol-5-amine] gave an IC50 of less than 100 nM.

As to `O=C(c1ccc(Cl)cc1)n1nc(-c2ccncc2)nc1NCc1ccccc1` [Cmpd 263, N-benzyl-1-[(4-chlorophenyl)carbonyl]-3-(pyridin-4-yl)-1H-1,2,4-triazol-5-amine], the 50% inhibitory concentration (IC50) was less than 100 nM.

The molecule `COc1ccc(C(=O)n2nc(-c3ccccn3)nc2NCc2ccccc2)c(C)c1` [Cmpd 264, N-benzyl-1-[(4-methoxy-2-methylphenyl)carbonyl]-3-(pyridin-2-yl)-1H-1,2,4-triazol-5-amine] yielded an IC50 of less than 100 nM.

The molecule `COc1ccc(C(=O)n2nc(-c3ccccn3)nc2NCc2ccccc2)cc1` [Cmpd 265, N-benzyl-1-[(4-methoxyphenyl)carbonyl]-3-(pyridin-2-yl)-1H-1,2,4-triazol-5-amine] showed a concentration for half-maximal inhibition (IC50) of less than 100 nM.

Take `O=C(c1ccco1)n1nc(-c2ccncc2)nc1NCc1ccccc1` [Cmpd 266, N-benzyl-1-[(furan-2-yl)carbonyl]-3-(pyridin-4-yl)-1H-1,2,4-triazol-5-amine]: the IC50 is less than 100 nM.

In turn, `O=C(c1ccoc1)n1nc(-c2ccccn2)nc1NCc1ccccc1` [Cmpd 267, N-benzyl-1-[(furan-3-yl)carbonyl]-3-(pyridin-2-yl)-1H-1,2,4-triazol-5-amine] returned an IC50 of less than 100 nM.

As to `O=C(c1ccoc1)n1nc(-c2ccncc2)nc1NCc1ccccc1` [Cmpd 268, N-benzyl-1-[(furan-3-yl)carbonyl]-3-(pyridin-4-yl)-1H-1,2,4-triazol-5-amine], the half-inhibitory concentration (IC50) was less than 100 nM.

In the case of `O=C(c1cccc2ccccc12)n1nc(-c2ccccn2)nc1NCc1ccccc1` [Cmpd 269, N-benzyl-1-[(naphthalen-1-yl)carbonyl]-3-(pyridin-2-yl)-1H-1,2,4-triazol-5-amine], the IC50 is less than 100 nM.

In the case of `O=C(c1cccc2ccccc12)n1nc(-c2ccccn2)cc1NCc1ccccc1` [Cmpd 270, N-benzyl-1-[(naphthalen-1-yl)carbonyl]-3-(pyridin-2-yl)-1H-pyrazol-5-amine], the IC50 is more than 1000 nM.

Molecule `O=C(c1ccc2ccccc2c1)n1nc(-c2ccccn2)nc1NCc1ccccc1` [Cmpd 271, N-benzyl-1-[(naphthalen-2-yl)carbonyl]-3-(pyridin-2-yl)-1H-1,2,4-triazol-5-amine] yielded an IC50 of 100 to 1000 nM.

`O=C(c1ccc2ccccc2c1)n1nc(-c2ccccn2)cc1NCc1ccccc1` [Cmpd 272, N-benzyl-1-[(naphthalen-2-yl)carbonyl]-3-(pyridin-2-yl)-1H-pyrazol-5-amine] yielded an IC50 of more than 1000 nM.

`CN(C)c1ccccc1C(=O)n1nc(-c2ccccn2)nc1NCc1ccccc1` [Cmpd 273, N-benzyl-1-[2-(dimethylamino)phenyl]carbonyl-3-(pyridin-2-yl)-1H-1,2,4-triazol-5-amine] registered an IC50 of more than 1000 nM.

As to `CC(C)c1ccccc1C(=O)n1nc(-c2ccccn2)nc1NCc1ccccc1` [Cmpd 275, N-benzyl-1-[2-(propan-2-yl)phenyl]carbonyl-3-(pyridin-2-yl)-1H-1,2,4-triazol-5-amine], the IC50 was more than 1000 nM.

`CC(C)c1ccccc1C(=O)n1nc(-c2ccccn2)cc1NCc1ccccc1` [Cmpd 276, N-benzyl-1-[2-(propan-2-yl)phenyl]carbonyl-3-(pyridin-2-yl)-1H-pyrazol-5-amine] displayed an IC50 of more than 1000 nM.

In the case of `O=C(c1ccccc1F)n1nc(-c2ccccc2F)cc1NCc1ccccc1` [Cmpd 277, N-benzyl-3-(2-fluorophenyl)-1-[(2-fluorophenyl)carbonyl]-1H-pyrazol-5-amine], the IC50 is 100 to 1000 nM.

The molecule `COc1ccccc1C(=O)n1nc(-c2ccccc2F)cc1NCc1ccccc1` [Cmpd 278, N-benzyl-3-(2-fluorophenyl)-1-[(2-methoxyphenyl)carbonyl]-1H-pyrazol-5-amine] displayed an IC50 of more than 1000 nM.

As to `O=C(c1ccsc1)n1nc(-c2ccccc2F)cc1NCc1ccccc1` [Cmpd 279, N-benzyl-3-(2-fluorophenyl)-1-[(thiophen-3-yl)carbonyl]-1H-pyrazol-5-amine], the IC50 was more than 1000 nM.

For the molecule `COc1ccccc1C(=O)n1nc(-c2ccco2)nc1NCc1ccccc1` [Cmpd 280, N-benzyl-3-(furan-2-yl)-1-[(2-methoxyphenyl)carbonyl]-1H-1,2,4-triazol-5-amine], the 50% inhibitory concentration (IC50) is less than 100 nM.

In the case of `c1ccc(CNc2nc(-c3ccco3)n[nH]2)cc1` [Cmpd 281, N-benzyl-3-(furan-2-yl)-1H-1,2,4-triazol-5-amine], the IC50 was more than 1000 nM.

In turn, `O=C(c1cccs1)n1nc(-c2ccccn2)nc1NCc1ccccc1` [Cmpd 282, N-benzyl-3-(pyridin-2-yl)-1-[(thiophen-2-yl)carbonyl]-1H-1,2,4-triazol-5-amine] returned an IC50 of less than 100 nM.

As for `O=C(c1ccsc1)n1nc(-c2ccccn2)nc1NCc1ccccc1` [Cmpd 283, N-benzyl-3-(pyridin-2-yl)-1-[(thiophen-3-yl)carbonyl]-1H-1,2,4-triazol-5-amine], the IC50 is less than 100 nM.

`O=C(c1ccsc1)n1nc(-c2ccccn2)cc1NCc1ccccc1` [Cmpd 284, N-benzyl-3-(pyridin-2-yl)-1-[(thiophen-3-yl)carbonyl]-1H-pyrazol-5-amine] registered an IC50 of less than 100 nM.

`O=C(c1ccccc1OC(F)(F)F)n1nc(-c2ccccn2)nc1NCc1ccccc1` [Cmpd 285, N-benzyl-3-(pyridin-2-yl)-1-[2-(trifluoromethoxy)phenyl]carbonyl-1H-1,2,4-triazol-5-amine]: the IC50 was less than 100 nM.

In turn, `O=C(c1ccccc1C(F)(F)F)n1nc(-c2ccccn2)nc1NCc1ccccc1` [Cmpd 286, N-benzyl-3-(pyridin-2-yl)-1-[2-(trifluoromethyl)phenyl]carbonyl-1H-1,2,4-triazol-5-amine] yielded an IC50 of more than 1000 nM.

Turning to `c1ccc(CNc2nc(-c3cccnc3)n[nH]2)cc1` [Cmpd 287, N-benzyl-3-(pyridin-3-yl)-1H-1,2,4-triazol-5-amine], the IC50 was more than 1000 nM.

In turn, `O=C(c1cccs1)n1nc(-c2ccncc2)nc1NCc1ccccc1` [Cmpd 288, N-benzyl-3-(pyridin-4-yl)-1-[(thiophen-2-yl)carbonyl]-1H-1,2,4-triazol-5-amine] displayed an IC50 of less than 100 nM.

Take `O=C(c1ccsc1)n1nc(-c2ccncc2)nc1NCc1ccccc1` [Cmpd 289, N-benzyl-3-(pyridin-4-yl)-1-[(thiophen-3-yl)carbonyl]-1H-1,2,4-triazol-5-amine]: the IC50 was less than 100 nM.

In turn, `c1ccc(CNc2nc(-c3ccncc3)n[nH]2)cc1` [Cmpd 290, N-benzyl-3-(pyridin-4-yl)-1H-1,2,4-triazol-5-amine] registered an IC50 of more than 1000 nM.

Molecule `O=C(c1ccsc1)n1nc(-c2cccs2)nc1NCc1ccccc1` [Cmpd 291, N-benzyl-3-(thiophen-2-yl)-1-[(thiophen-3-yl)carbonyl]-1H-1,2,4-triazol-5-amine] registered an IC50 of 100 to 1000 nM.

The molecule `COc1ccccc1C(=O)N(Cc1ccccc1)c1cc(-c2ccccc2F)n[nH]1` [Cmpd 292, N-benzyl-N-[3-(2-fluorophenyl)-1H-pyrazol-5-yl]-2-methoxybenzamide] showed an IC50 of more than 1000 nM.

On to `CCN(C)C(=O)c1cc(-c2ccccn2)nn1CCc1ccc(F)cc1` [Cmpd 293, N-ethyl-1-[2-(4-fluorophenyl)ethyl]-N-methyl-3-(pyridin-2-yl)-1H-pyrazole-5-carboxamide], for which the IC50 was more than 1000 nM.

The molecule `CCN(C)C(=O)c1cc(-c2ccccn2)n(CCc2ccc(F)cc2)n1` [Cmpd 294, N-ethyl-1-[2-(4-fluorophenyl)ethyl]-N-methyl-5-(pyridin-2-yl)-1H-pyrazole-3-carboxamide] returned an IC50 of more than 1000 nM.

`CCNC(=O)c1cn(-c2ccccn2)nc1NCc1ccc(F)cc1` [Cmpd 295, N-ethyl-3-[(4-fluorophenyl)methyl]amino-1-(pyridin-2-yl)-1H-pyrazole-4-carboxamide] registered an IC50 of more than 1000 nM.

In turn, `CCNC(=O)n1nc(-c2cccnc2)nc1NCc1ccc(F)cc1` [Cmpd 296, N-ethyl-5-[(4-fluorophenyl)methyl]amino-3-(pyridin-3-yl)-1H-1,2,4-triazole-1-carboxamide] had an IC50 of more than 1000 nM.

In the case of `CCN(C)C(=O)n1nc(-c2cccnc2)nc1NCc1ccc(F)cc1` [Cmpd 297, N-ethyl-5-[(4-fluorophenyl)methyl]amino-N-methyl-3-(pyridin-3-yl)-1H-1,2,4-triazole-1-carboxamide], the IC50 is more than 1000 nM.

For `O=C(Oc1ccccc1)n1nc(-c2cccnc2)nc1NCc1ccc(F)cc1` [Cmpd 298, phenyl 5-[(4-fluorophenyl)methyl]amino-3-(pyridin-3-yl)-1H-1,2,4-triazole-1-carboxylate], the IC50 is less than 100 nM.

As for `CC(C)OC(=O)n1nc(-c2cccnc2)nc1NCc1ccc(F)cc1` [Cmpd 299, propan-2-yl 5-[(4-fluorophenyl)methyl]amino-3-(pyridin-3-yl)-1H-1,2,4-triazole-1-carboxylate], the IC50 was more than 1000 nM.

`CC(C)(C)OC(=O)n1nc(-c2cccnc2)nc1NCc1ccc(F)cc1` [Cmpd 300, tert-butyl 5-[(4-fluorophenyl)methyl]amino-3-(pyridin-3-yl)-1H-1,2,4-triazole-1-carboxylate] returned a 50% inhibitory concentration (IC50) of more than 1000 nM.

For the molecule `CC(C)(C)OC(=O)Nc1ccccc1C(=O)n1nc(-c2ccccn2)nc1NCc1ccccc1` [Cmpd 301, tert-butyl N-(2-[5-(benzylamino)-3-(pyridin-2-yl)-1H-1,2,4-triazol-1-yl]carbonylphenyl)carbamate], the half-inhibitory concentration (IC50) was more than 1000 nM.

Consider `CC(=O)c1cn(-c2ccccc2)nc1N(Cc1ccc(F)cc1)C(=O)OC(C)(C)C` [Cmpd 302, tert-butyl N-(4-acetyl-1-phenyl-1H-pyrazol-3-yl)-N-[(4-fluorophenyl)methyl]carbamate], for which the IC50 is more than 1000 nM.
